{"source": "patent US12103919B2", "about": "“3-(5-oxy)-1-oxoisoindolin-2-yl)piperidine-2,6-dione derivatives and uses thereof” (NOVARTIS AG, priority 2021, dated 2024)", "biological_target": "T1, WIZ (Homo sapiens, UniProt O95785+Q96SW2)", "T1 construct": "expressed in transfected cells", "T1 sequence (O95785 whole entry, the tested form may be a part)": "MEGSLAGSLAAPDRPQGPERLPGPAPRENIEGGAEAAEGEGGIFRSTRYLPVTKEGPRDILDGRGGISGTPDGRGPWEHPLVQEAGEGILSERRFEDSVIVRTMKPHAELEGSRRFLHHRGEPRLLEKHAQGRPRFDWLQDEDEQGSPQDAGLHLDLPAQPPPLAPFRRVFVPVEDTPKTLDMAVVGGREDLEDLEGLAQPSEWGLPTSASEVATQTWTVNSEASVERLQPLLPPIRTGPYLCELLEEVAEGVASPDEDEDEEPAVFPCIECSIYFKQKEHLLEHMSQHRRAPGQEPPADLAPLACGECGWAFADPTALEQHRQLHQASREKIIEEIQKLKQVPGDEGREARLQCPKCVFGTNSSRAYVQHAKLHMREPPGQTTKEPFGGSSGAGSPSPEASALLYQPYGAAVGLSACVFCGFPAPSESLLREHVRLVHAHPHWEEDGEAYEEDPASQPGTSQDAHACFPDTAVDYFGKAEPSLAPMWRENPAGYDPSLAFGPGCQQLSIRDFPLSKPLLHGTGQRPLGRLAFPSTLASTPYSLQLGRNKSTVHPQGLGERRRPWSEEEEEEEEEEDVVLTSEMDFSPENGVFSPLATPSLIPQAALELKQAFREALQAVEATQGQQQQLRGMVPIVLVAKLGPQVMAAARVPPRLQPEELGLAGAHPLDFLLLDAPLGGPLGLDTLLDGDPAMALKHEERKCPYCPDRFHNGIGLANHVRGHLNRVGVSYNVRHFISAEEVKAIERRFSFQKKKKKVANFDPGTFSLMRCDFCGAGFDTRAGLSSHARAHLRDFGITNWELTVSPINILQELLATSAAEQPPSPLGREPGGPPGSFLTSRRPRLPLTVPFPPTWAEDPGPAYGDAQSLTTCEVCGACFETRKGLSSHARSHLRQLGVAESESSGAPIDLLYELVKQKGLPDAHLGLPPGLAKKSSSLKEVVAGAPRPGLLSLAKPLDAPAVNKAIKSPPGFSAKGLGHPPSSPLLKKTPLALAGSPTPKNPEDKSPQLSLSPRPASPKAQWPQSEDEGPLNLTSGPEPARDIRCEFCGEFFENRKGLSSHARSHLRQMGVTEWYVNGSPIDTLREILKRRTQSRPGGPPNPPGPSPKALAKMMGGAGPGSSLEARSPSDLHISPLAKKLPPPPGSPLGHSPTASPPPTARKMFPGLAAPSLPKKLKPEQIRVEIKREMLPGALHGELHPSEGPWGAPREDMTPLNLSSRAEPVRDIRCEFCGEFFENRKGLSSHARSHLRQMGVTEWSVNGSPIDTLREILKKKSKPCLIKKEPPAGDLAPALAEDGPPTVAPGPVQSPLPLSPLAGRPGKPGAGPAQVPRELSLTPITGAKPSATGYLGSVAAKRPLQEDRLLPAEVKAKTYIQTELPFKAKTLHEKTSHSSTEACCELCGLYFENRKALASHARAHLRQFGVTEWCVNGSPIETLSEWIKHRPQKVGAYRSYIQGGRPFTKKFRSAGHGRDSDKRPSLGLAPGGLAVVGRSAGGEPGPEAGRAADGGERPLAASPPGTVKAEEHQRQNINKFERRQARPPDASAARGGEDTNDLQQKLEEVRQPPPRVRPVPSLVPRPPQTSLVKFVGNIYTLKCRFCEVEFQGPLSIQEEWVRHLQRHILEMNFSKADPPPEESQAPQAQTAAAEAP", "T1 sequence (Q96SW2 whole entry, the tested form may be a part)": "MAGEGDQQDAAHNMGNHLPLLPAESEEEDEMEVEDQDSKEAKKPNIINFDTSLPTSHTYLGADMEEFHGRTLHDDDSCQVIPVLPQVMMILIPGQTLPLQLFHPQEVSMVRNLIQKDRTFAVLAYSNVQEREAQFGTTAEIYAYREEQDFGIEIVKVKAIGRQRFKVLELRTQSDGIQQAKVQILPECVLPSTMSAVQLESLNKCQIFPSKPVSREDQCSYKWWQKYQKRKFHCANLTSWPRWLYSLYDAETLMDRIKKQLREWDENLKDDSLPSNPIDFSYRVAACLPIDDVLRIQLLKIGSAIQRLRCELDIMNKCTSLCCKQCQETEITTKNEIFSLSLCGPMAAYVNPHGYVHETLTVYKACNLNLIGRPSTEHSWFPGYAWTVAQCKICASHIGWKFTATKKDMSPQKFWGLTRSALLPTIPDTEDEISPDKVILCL", "T1 sequence (Q16531 whole entry partner, the tested form may be a part)": "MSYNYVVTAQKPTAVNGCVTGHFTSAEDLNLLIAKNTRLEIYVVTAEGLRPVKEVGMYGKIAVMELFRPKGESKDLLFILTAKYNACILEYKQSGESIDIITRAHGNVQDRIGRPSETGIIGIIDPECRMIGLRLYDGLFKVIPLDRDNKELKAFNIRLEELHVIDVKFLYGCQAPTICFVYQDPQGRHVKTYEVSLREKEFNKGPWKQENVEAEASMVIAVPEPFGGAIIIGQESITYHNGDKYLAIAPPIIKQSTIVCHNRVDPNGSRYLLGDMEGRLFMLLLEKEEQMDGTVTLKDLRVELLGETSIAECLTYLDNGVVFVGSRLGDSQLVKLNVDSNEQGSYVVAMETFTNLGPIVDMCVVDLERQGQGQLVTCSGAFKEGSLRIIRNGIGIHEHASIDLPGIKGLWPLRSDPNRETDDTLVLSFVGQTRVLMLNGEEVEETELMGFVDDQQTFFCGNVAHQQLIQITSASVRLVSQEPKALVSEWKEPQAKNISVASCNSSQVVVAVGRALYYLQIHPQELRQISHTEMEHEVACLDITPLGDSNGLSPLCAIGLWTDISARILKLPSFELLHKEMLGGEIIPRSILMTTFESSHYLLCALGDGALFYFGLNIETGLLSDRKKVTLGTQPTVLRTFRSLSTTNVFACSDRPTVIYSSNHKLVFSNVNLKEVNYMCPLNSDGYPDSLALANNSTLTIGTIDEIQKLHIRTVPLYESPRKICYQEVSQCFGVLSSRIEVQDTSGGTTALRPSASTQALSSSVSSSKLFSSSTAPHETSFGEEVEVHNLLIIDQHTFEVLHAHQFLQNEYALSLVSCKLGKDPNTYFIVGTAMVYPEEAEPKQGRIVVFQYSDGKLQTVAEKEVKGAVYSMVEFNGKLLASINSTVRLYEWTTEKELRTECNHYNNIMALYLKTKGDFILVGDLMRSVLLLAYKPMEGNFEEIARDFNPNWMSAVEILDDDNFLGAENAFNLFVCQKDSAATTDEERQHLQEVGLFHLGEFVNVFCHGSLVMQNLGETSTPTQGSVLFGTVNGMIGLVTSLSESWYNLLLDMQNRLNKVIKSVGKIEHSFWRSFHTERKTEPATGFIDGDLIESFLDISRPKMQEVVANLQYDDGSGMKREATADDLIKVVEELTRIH", "assay": "Quantification of WIZ protein levels in HiBit tag fusion protein assay (293T cells)", "assay_type": "cell-based", "set-up": "Dmax: dose or concentration left out as unconfirmed", "conditions": "for DC50: read-out: WIZ AC50", "summary_of_the_method": "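293T cells stably carrying a single-copy HiBit-WIZ fusion were exposed to compounds for about 18 hours at 37° C., top concentration 25 μM, 10-point 5-fold series. Lysates were complemented with LgBit and luminescence was read. Amax is the DMSO-normalized, curve-fitted percentage of WIZ-HiBit remaining at 25 uM.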", "note": "Where two headings read alike, the source gives them in different places.", "data": [{"smiles": "CCN1CCC[C@@H](Oc2ccc3c(c2)CN(C2CCC(=O)NC2=O)C3=O)C1", "note": "(mixture of isomers) [Example 1, 3-(5-(((R)-1-ethylpiperidin-3-yl)oxy)-1-oxoisoindolin-2-yl)piperidine-2,6-dione]", "values": [{"measurement": "Dmax", "setting": "HEK-293T, read-out: % degradation of WIZ (100 − Amax)", "value": 76, "unit": "%"}, {"measurement": "remaining activity at 25 µM", "setting": "HEK-293T, read-out: WIZ Amax", "value": 24, "unit": "%"}, {"measurement": "DC50", "setting": "WIZ HiBit assay in 293T cells, about 18 hours, 10-point 5-fold dilution, top 25 μM", "value": 16, "unit": "nM"}, {"measurement": "DC50", "setting": "updated arithmatic mean over the number of repeats specified, assay of Example 89", "value": 16, "unit": "nM"}]}]}
